According to the supplement of paper PMC10307832:

Experiments:
Experiment in all cases: relative viability (nuclei count vs DMSO), 5 days (fraction); higher = more cells survive
Tivantinib + Pictilisib = compound: O=C1NC(=O)[C@@H](c2cn3c4c(cccc24)CCC3)[C@@H]1c1c[nH]c2ccccc12 [Tivantinib] + CS(=O)(=O)N1CCN(Cc2cc3nc(-c4cccc5[nH]ncc45)nc(N4CCOCC4)c3s2)CC1 [Pictilisib] (partner 1 µM)
In short: (§1)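 Lung cancer cell lines were seeded in 1536-well plates and dosed by pin tool the next day, with either a single drug or a fixed anchor-drug dose combined with five library-drug doses (not always all listed) spaced in √10 steps. Five days later, one step fixed the cells and stained their nuclei (final 0.05% Triton X-100, 1% formaldehyde, 1 ug/ml Hoechst), and nuclei were counted on 4× images. Relative viability is the nuclei count in treated wells divided by the count in vehicle wells, and each value is the median of duplicate plates.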

Tivantinib + Vorinostat = compound: O=C1NC(=O)[C@@H](c2cn3c4c(cccc24)CCC3)[C@@H]1c1c[nH]c2ccccc12 [Tivantinib] + O=C(CCCCCCC(=O)Nc1ccccc1)NO [Vorinostat] (partner 1 µM)
In short: as §1

Crenolanib + Phenformin = compound: CC1(COc2ccc3c(c2)ncn3-c2ccc3cccc(N4CCC(N)CC4)c3n2)COC1 [Crenolanib] + N=C(N)NC(=N)NCCc1ccccc1 [Phenformin] (partner 250 µM)
In short: as §1

Tivantinib + Trametinib = compound: O=C1NC(=O)[C@@H](c2cn3c4c(cccc24)CCC3)[C@@H]1c1c[nH]c2ccccc12 [Tivantinib] + CC(=O)Nc1cccc(-n2c(=O)n(C3CC3)c(=O)c3c(Nc4ccc(I)cc4F)n(C)c(=O)c(C)c32)c1 [Trametinib] (partner 0.02 µM)
In short: as §1

Work on NCI-H2405 yielded a relative viability (Tivantinib + Pictilisib; first compound 0.01 µM) of 0.509, a relative viability (Tivantinib + Pictilisib; first compound 0.03162 µM) of 0.43 and a relative viability (Tivantinib + Pictilisib; first compound 0.1 µM) of 0.381. It also gave a relative viability (Tivantinib + Pictilisib; first compound 0.3162 µM) of 0.4, a relative viability (Tivantinib + Vorinostat; first compound 0.01 µM) of 1.17 and a relative viability (Tivantinib + Vorinostat; first compound 0.03162 µM) of 1.04. For the same cell line, the relative viability (Tivantinib + Vorinostat; first compound 0.1 µM) was 1, the relative viability (Tivantinib + Vorinostat; first compound 0.3162 µM) was 1.26 and the relative viability (Crenolanib + Phenformin; first compound 0.01 µM) was 0.359. It also gave a relative viability (Crenolanib + Phenformin; first compound 0.03162 µM) of 0.394, a relative viability (Crenolanib + Phenformin; first compound 0.3162 µM) of 0.284 and a relative viability (Crenolanib + Phenformin; first compound 1 µM) of 0.362. It also gave a relative viability (Tivantinib + Trametinib; first compound 0.01 µM) of 0.771, a relative viability (Tivantinib + Trametinib; first compound 0.03162 µM) of 0.63 and a relative viability (Tivantinib + Trametinib; first compound 0.1 µM) of 0.615. For the same cell line, the relative viability (Tivantinib + Trametinib; first compound 0.3162 µM) was 0.597.
NCI-H3122 showed a relative viability (Tivantinib + Pictilisib; first compound 0.01 µM) of 0.585, a relative viability (Tivantinib + Pictilisib; first compound 0.03162 µM) of 0.599 and a relative viability (Tivantinib + Pictilisib; first compound 0.1 µM) of 0.545. For the same cell line, the relative viability (Tivantinib + Pictilisib; first compound 0.3162 µM) was 0.441, the relative viability (Tivantinib + Vorinostat; first compound 0.01 µM) was 1.09 and the relative viability (Tivantinib + Vorinostat; first compound 0.03162 µM) was 0.943. The relative viability (Tivantinib + Vorinostat; first compound 0.1 µM) was 0.947, the relative viability (Tivantinib + Vorinostat; first compound 0.3162 µM) was 1.11 and the relative viability (Crenolanib + Phenformin; first compound 0.01 µM) was 0.383. The relative viability (Crenolanib + Phenformin; first compound 0.03162 µM) was 0.344, the relative viability (Crenolanib + Phenformin; first compound 0.1 µM) was 0.368 and the relative viability (Crenolanib + Phenformin; first compound 0.3162 µM) was 0.313. For the same cell line, the relative viability (Crenolanib + Phenformin; first compound 1 µM) was 0.318, the relative viability (Tivantinib + Trametinib; first compound 0.01 µM) was 0.219 and the relative viability (Tivantinib + Trametinib; first compound 0.03162 µM) was 0.216. For the same cell line, the relative viability (Tivantinib + Trametinib; first compound 0.1 µM) was 0.199 and the relative viability (Tivantinib + Trametinib; first compound 0.3162 µM) was 0.202.
Work on PC-3 [JPC-3] yielded a relative viability (Tivantinib + Pictilisib; first compound 0.01 µM) of 0.687, a relative viability (Tivantinib + Pictilisib; first compound 0.03162 µM) of 0.705 and a relative viability (Tivantinib + Pictilisib; first compound 0.1 µM) of 0.765. The relative viability (Tivantinib + Pictilisib; first compound 0.3162 µM) was 0.637, the relative viability (Tivantinib + Vorinostat; first compound 0.01 µM) was 0.791 and the relative viability (Tivantinib + Vorinostat; first compound 0.03162 µM) was 0.979. For the same cell line, the relative viability (Tivantinib + Vorinostat; first compound 0.1 µM) was 0.891, the relative viability (Tivantinib + Vorinostat; first compound 0.3162 µM) was 0.807 and the relative viability (Crenolanib + Phenformin; first compound 0.01 µM) was 0.487. It also gave a relative viability (Crenolanib + Phenformin; first compound 0.03162 µM) of 0.494, a relative viability (Crenolanib + Phenformin; first compound 0.1 µM) of 0.46 and a relative viability (Crenolanib + Phenformin; first compound 0.3162 µM) of 0.474. It also gave a relative viability (Crenolanib + Phenformin; first compound 1 µM) of 0.458, a relative viability (Tivantinib + Trametinib; first compound 0.01 µM) of 0.731 and a relative viability (Tivantinib + Trametinib; first compound 0.03162 µM) of 0.726. The relative viability (Tivantinib + Trametinib; first compound 0.1 µM) was 0.693 and the relative viability (Tivantinib + Trametinib; first compound 0.3162 µM) was 0.513.
PC-14 was tested, and the relative viability (Tivantinib + Pictilisib; first compound 0.01 µM) was 0.584, the relative viability (Tivantinib + Pictilisib; first compound 0.03162 µM) was 0.718 and the relative viability (Tivantinib + Pictilisib; first compound 0.1 µM) was 0.723. The relative viability (Tivantinib + Pictilisib; first compound 0.3162 µM) was 0.292, the relative viability (Tivantinib + Vorinostat; first compound 0.01 µM) was 0.832 and the relative viability (Tivantinib + Vorinostat; first compound 0.03162 µM) was 0.821. The relative viability (Tivantinib + Vorinostat; first compound 0.1 µM) was 0.755, the relative viability (Tivantinib + Vorinostat; first compound 0.3162 µM) was 0.356 and the relative viability (Crenolanib + Phenformin; first compound 0.01 µM) was 0.628. It also gave a relative viability (Crenolanib + Phenformin; first compound 0.03162 µM) of 0.46, a relative viability (Crenolanib + Phenformin; first compound 0.1 µM) of 0.544 and a relative viability (Crenolanib + Phenformin; first compound 0.3162 µM) of 0.473. The relative viability (Crenolanib + Phenformin; first compound 1 µM) was 0.314, the relative viability (Tivantinib + Trametinib; first compound 0.01 µM) was 0.671 and the relative viability (Tivantinib + Trametinib; first compound 0.03162 µM) was 0.811. It also gave a relative viability (Tivantinib + Trametinib; first compound 0.1 µM) of 0.753 and a relative viability (Tivantinib + Trametinib; first compound 0.3162 µM) of 0.452.
Cell Line RERF-LC-KJ has a relative viability (Tivantinib + Pictilisib; first compound 0.01 µM) of 0.543, a relative viability (Tivantinib + Pictilisib; first compound 0.03162 µM) of 0.618 and a relative viability (Tivantinib + Pictilisib; first compound 0.1 µM) of 0.51. The relative viability (Tivantinib + Pictilisib; first compound 0.3162 µM) was 0.461, the relative viability (Tivantinib + Vorinostat; first compound 0.01 µM) was 0.717 and the relative viability (Tivantinib + Vorinostat; first compound 0.03162 µM) was 0.628. The relative viability (Tivantinib + Vorinostat; first compound 0.1 µM) was 0.717, the relative viability (Tivantinib + Vorinostat; first compound 0.3162 µM) was 0.502 and the relative viability (Crenolanib + Phenformin; first compound 0.01 µM) was 0.442. The relative viability (Crenolanib + Phenformin; first compound 0.03162 µM) was 0.44, the relative viability (Crenolanib + Phenformin; first compound 0.1 µM) was 0.423 and the relative viability (Crenolanib + Phenformin; first compound 0.3162 µM) was 0.463. For the same cell line, the relative viability (Crenolanib + Phenformin; first compound 1 µM) was 0.446, the relative viability (Tivantinib + Trametinib; first compound 0.01 µM) was 0.875 and the relative viability (Tivantinib + Trametinib; first compound 0.03162 µM) was 0.845. It also gave a relative viability (Tivantinib + Trametinib; first compound 0.1 µM) of 0.855 and a relative viability (Tivantinib + Trametinib; first compound 0.3162 µM) of 0.688.
With SK-LU-1 the relative viability (Tivantinib + Pictilisib; first compound 0.01 µM) was 0.669, the relative viability (Tivantinib + Pictilisib; first compound 0.03162 µM) was 0.524 and the relative viability (Tivantinib + Pictilisib; first compound 0.1 µM) was 0.614. The relative viability (Tivantinib + Pictilisib; first compound 0.3162 µM) was 0.548, the relative viability (Tivantinib + Vorinostat; first compound 0.01 µM) was 0.742 and the relative viability (Tivantinib + Vorinostat; first compound 0.03162 µM) was 0.764. It also gave a relative viability (Tivantinib + Vorinostat; first compound 0.1 µM) of 0.65, a relative viability (Tivantinib + Vorinostat; first compound 0.3162 µM) of 0.836 and a relative viability (Crenolanib + Phenformin; first compound 0.01 µM) of 0.61. For the same cell line, the relative viability (Crenolanib + Phenformin; first compound 0.03162 µM) was 0.545, the relative viability (Crenolanib + Phenformin; first compound 0.1 µM) was 0.39 and the relative viability (Crenolanib + Phenformin; first compound 0.3162 µM) was 0.514. For the same cell line, the relative viability (Crenolanib + Phenformin; first compound 1 µM) was 0.517, the relative viability (Tivantinib + Trametinib; first compound 0.01 µM) was 0.514 and the relative viability (Tivantinib + Trametinib; first compound 0.03162 µM) was 0.549. For the same cell line, the relative viability (Tivantinib + Trametinib; first compound 0.1 µM) was 0.484 and the relative viability (Tivantinib + Trametinib; first compound 0.3162 µM) was 0.472.
Work on SK-MES-1 yielded a relative viability (Tivantinib + Pictilisib; first compound 0.01 µM) of 0.413, a relative viability (Tivantinib + Pictilisib; first compound 0.03162 µM) of 0.368 and a relative viability (Tivantinib + Pictilisib; first compound 0.1 µM) of 0.4. For the same cell line, the relative viability (Tivantinib + Pictilisib; first compound 0.3162 µM) was 0.213, the relative viability (Tivantinib + Vorinostat; first compound 0.01 µM) was 1.16 and the relative viability (Tivantinib + Vorinostat; first compound 0.03162 µM) was 0.945. For the same cell line, the relative viability (Tivantinib + Vorinostat; first compound 0.1 µM) was 1.06, the relative viability (Tivantinib + Vorinostat; first compound 0.3162 µM) was 0.935 and the relative viability (Crenolanib + Phenformin; first compound 0.01 µM) was 0.655. For the same cell line, the relative viability (Crenolanib + Phenformin; first compound 0.03162 µM) was 0.635, the relative viability (Crenolanib + Phenformin; first compound 0.1 µM) was 0.687 and the relative viability (Crenolanib + Phenformin; first compound 0.3162 µM) was 0.636. For the same cell line, the relative viability (Crenolanib + Phenformin; first compound 1 µM) was 0.583, the relative viability (Tivantinib + Trametinib; first compound 0.01 µM) was 0.645 and the relative viability (Tivantinib + Trametinib; first compound 0.03162 µM) was 0.511. The relative viability (Tivantinib + Trametinib; first compound 0.1 µM) was 0.521 and the relative viability (Tivantinib + Trametinib; first compound 0.3162 µM) was 0.582.
In the case of SW 1573, the relative viability (Tivantinib + Pictilisib; first compound 0.01 µM) is reported as 0.491, the relative viability (Tivantinib + Pictilisib; first compound 0.03162 µM) is reported as 0.52 and the relative viability (Tivantinib + Pictilisib; first compound 0.1 µM) is reported as 0.406. The relative viability (Tivantinib + Pictilisib; first compound 0.3162 µM) was 0.472, the relative viability (Tivantinib + Vorinostat; first compound 0.01 µM) was 1.04 and the relative viability (Tivantinib + Vorinostat; first compound 0.03162 µM) was 0.53. The relative viability (Tivantinib + Vorinostat; first compound 0.1 µM) was 0.75, the relative viability (Tivantinib + Vorinostat; first compound 0.3162 µM) was 0.67 and the relative viability (Crenolanib + Phenformin; first compound 0.01 µM) was 0.426. The relative viability (Crenolanib + Phenformin; first compound 0.03162 µM) was 0.44, the relative viability (Crenolanib + Phenformin; first compound 0.1 µM) was 0.331 and the relative viability (Crenolanib + Phenformin; first compound 0.3162 µM) was 0.446. For the same cell line, the relative viability (Crenolanib + Phenformin; first compound 1 µM) was 0.348, the relative viability (Tivantinib + Trametinib; first compound 0.01 µM) was 0.682 and the relative viability (Tivantinib + Trametinib; first compound 0.03162 µM) was 0.488. For the same cell line, the relative viability (Tivantinib + Trametinib; first compound 0.1 µM) was 0.561 and the relative viability (Tivantinib + Trametinib; first compound 0.3162 µM) was 0.452.
UMC-11 showed a relative viability (Tivantinib + Pictilisib; first compound 0.01 µM) of 0.733, a relative viability (Tivantinib + Pictilisib; first compound 0.03162 µM) of 0.423 and a relative viability (Tivantinib + Pictilisib; first compound 0.1 µM) of 0.75. It also gave a relative viability (Tivantinib + Pictilisib; first compound 0.3162 µM) of 0.954, a relative viability (Tivantinib + Vorinostat; first compound 0.01 µM) of 0.383 and a relative viability (Tivantinib + Vorinostat; first compound 0.03162 µM) of 0.392. The relative viability (Tivantinib + Vorinostat; first compound 0.1 µM) was 0.328, the relative viability (Tivantinib + Vorinostat; first compound 0.3162 µM) was 0.385 and the relative viability (Crenolanib + Phenformin; first compound 0.01 µM) was 0.346. It also gave a relative viability (Crenolanib + Phenformin; first compound 0.03162 µM) of 0.323, a relative viability (Crenolanib + Phenformin; first compound 0.1 µM) of 0.325 and a relative viability (Crenolanib + Phenformin; first compound 0.3162 µM) of 0.329. For the same cell line, the relative viability (Crenolanib + Phenformin; first compound 1 µM) was 0.269, the relative viability (Tivantinib + Trametinib; first compound 0.01 µM) was 0.678 and the relative viability (Tivantinib + Trametinib; first compound 0.03162 µM) was 0.451. It also gave a relative viability (Tivantinib + Trametinib; first compound 0.1 µM) of 0.666 and a relative viability (Tivantinib + Trametinib; first compound 0.3162 µM) of 0.693.
